Tests used:
[1] = test system: RNA Polymerase II Serine 5 phosphorylation in A549 cells overexpressing CDK7-mutant (C312S); test: Imaging-based cellular RNA PolII Ser5 phosphorylation assay in A549 cells overexpressing CDK7-mutant (C312S); type: cell-based, human; settings: RNA PolII Ser5 phosphorylation, averaged over all measurements; for IC50: Homo sapiens, A549, A549 cells overexpressing CDK7-mutant (C312S), read-out: CDK7_A549 mutant hCDK7(pIC50) (converted); for CDK7_A549 mutant hCDK7(pIC50): A549 cells overexpressing CDK7-mutant (C312S)
Description: (§1) To evaluate inhibition of CDK7 kinase activity, a 384-well automated imaging assay was used. This assay detects Serine 5 phosphorylation on a unique heptapeptide sequence in the C-terminal domain of Rpb1 subunit of RNA polymerase II, the downstream substrate of CDK7. This heptapeptide sequence is repeated up to 52 times in the CTD of Rpb1.
(§2) A549 adenocarcinoma human alveolar basal epithelial cells (ATCC, CCL-185), rabbit Phospho-Rpb1 CTD (Ser5) antibody (D9N51 (Cell Signaling Technology)), DMEM (Sigma), Fetal Bovine Serum (Biowest), L-glutamine (Sigma), Penicillin/Streptomycin (Life Technologies), Sodium Pyruvate (Sigma), Hepes (Sigma), poly-D-lysine coated μclear 384 black plates (Greiner), formaldehyde (PolySciences), D-PBS (Sigma), Methanol (Sigma), Alexa Fluor 488 goat anti rabbit IgG secondary antibody (Life Technologies), HCS CellMask™ Deep Red stain (Life Technologies), Hoechst 33258 (Invitrogen).
(§3) RNA Polymerase II Serine 5 phosphorylation was detected using a specific rabbit Phospho-Rpb1 CTD (Ser5) antibody. A549 adenocarcinoma human alveolar basal epithelial cells were seeded in 20 μl medium (DMEM supplemented with 1% Fetal Bovine Serum (heat inactivated 30′ 56° C.), 2 mM L-glutamine, 50 U/ml penicillin 50 μg/ml streptomycin, 1 mM sodium pyruvate and 50 mM hepes) at 1000 cells/well and cultured in poly-D-lysine coated μclear 384 black plates for 20 hours at 37° C. and 5% CO2.
(§4) After incubation cells were challenged with compound for 3 hours at 37° C. and 5% CO2. DMSO was used as high control and as low control 10 μM of the following reference compound was used:
(§5) 40 nl of test compounds and controls were spotted in cell plates using Echo Liquid Handler (Echo 550, Labcyte). Incubation was followed by 20 minutes fixation with 20 μl 10% formaldehyde at room temperature. Medium/formaldehyde solution was removed, plates were washed 3 times with 30 μl D-PBS (w/o Ca^2+ and Ma^2+) and permeabilization was done by adding 20 μl ice cold methanol for 20 minutes. Cells were washed again 3 times with 30 μl D-PBS and 20 μl blocking buffer (25 ml fetal bovine serum in 500 ml D-PBS) was added for 1 hour.
(§6) After removing blocking buffer 20 μl 1/1000 primary antibody rabbit Phospho-Rpb1 CTD (Ser5) antibody was added which binds to the phosphorylated Serine5 of the heptapeptide sequences in the CTD of Rpb1. Primary antibody was removed, and plates were washed 3 times with 30 μl D-PBS followed by addition of 20 μl 1/2000 Alexa Fluor 488 goat anti rabbit IgG secondary antibody for final detection of Phospho-Rpb1 CTD (Ser5) together with 1/5000 HCS CellMask™ Deep Red stain for membrane staining and 1/5000 Hoechst 33258 for nucleus staining. Last, plates were washed 2 times with 30 μl D-PBS and wells were filled with 40 μL D-PBS, plates were sealed (Thermowell sealing tape) and stored at 4° C. until reading. Plates were read with Opera Phenix (Perkin Elmer) with 10× air objective. Data were calculated and analyzed in Phaedra.
(§7) IC50 values were calculated using the following formula: […]
(§8) Average value of all HC's and all LC's are used for normalizations.
(§9) A best-fit curve is fitted by a minimum sum of squares method to the plot of % Control vs. compound concentration. From this an IC50 value can be obtained. An estimate of the slope of the plot in terms of the Hill coefficient is also obtained.
In parallel this assay was performed in A549 cells overexpressing CDK7-mutant (C312S) to evaluate the effect of the covalent bond on potency and to screen for potential off-target effects. Mutation of Cysteine to Serine (C312S), a less nucleophilic amino acid, prevents CDK7 inhibitors from covalently binding to CDK7 and from inhibiting CDK7 activity in an irreversible manner. A stably transduced A549 cell pool was generated that overexpresses CDK7 mutant (C312S), but also expresses endogenous CDK7-WT. Covalent binders targeting the cysteine at position 312 will show a shift in potency in A549 cells overexpressing mutant C312S CDK7.

[2] = test system: RNA Polymerase II Serine 5 phosphorylation (Rpb1 CTD, downstream substrate of CDK7) in A549 cells; test: Imaging-based cellular RNA PolII Ser5 phosphorylation assay in A549 cells; type: cell-based, human; settings: wild-type CDK7, RNA PolII Ser5 phosphorylation, averaged over all measurements; for IC50: Homo sapiens, A549, A549 cells, read-out: CDK7_A549 Wild-type CDK7 (pIC50) (converted); for CDK7_A549 Wild-type CDK7 (pIC50): A549 cells
Description: as §1, §2, §3, §4, §5, §6, §7, §8, §9

Row | SMILES | IC50 [1] | IC50 [2] | CDK7_A549 mutant hCDK7(pIC50) [1] | CDK7_A549 Wild-type CDK7 (pIC50) [2]
1 | CC#CC(=O)N1CCC(N2CC(c3cc4c(c(C#N)n3)O[C@@H](C)c3c(N5CCOCC5)ccnc3N4)C2)CC1 (single isomer, unassigned) [Compound 545] | 2.82 µM | 0.117 µM | – | –
2 | CC#CC(=O)N1CC(N2CCC(c3cc4c(c(C)n3)O[C@H](C)c3c(C5CCOCC5)ccnc3N4)CC2)C1 (single isomer, unassigned) [Compound 405] | > 10 µM | 0.0891 µM | – | –
3 | C/C=C/C(=O)N1CC(N2CCC(c3cc4c(c(C)n3)OCc3c(-c5cnn(C)c5)ccnc3N4)CC2)C1 [Compound 537] | > 10 µM | > 10 µM | – | –
4 | C=CC(=O)N1CC[C@H](N2CCC(c3cc4c(c(C)n3)OCc3c(-c5cnn(C)c5)ccnc3N4)CC2)C1 (single isomer, unassigned) [Compound 293] | > 10 µM | 0.102 µM | – | –
5 | CC#CC(=O)N1CC[C@H](N2CC(c3cc4c(c(C)n3)O[C@H](C)c3c(N5CCOCC5)ccnc3N4)C2)C1 (single isomer, unassigned) [Compound 530] | – | – | <5 | <5
6 | C=CC(=O)N1CCC(N2CC(c3cc4c(cn3)OC(C)(C)c3c(-c5cnn(C)c5)ccnc3N4)C2)CC1 [Compound 320] | > 10 µM | > 10 µM | – | –
7 | C=CC(=O)N1CCC(n2cc(-c3cc4c(c(C)n3)OCc3c(N5CCOCC5)ccnc3N4)cn2)CC1 [Compound 390] | 8.71 µM | 0.214 µM | – | –
8 | CC#CC(=O)N1CC[C@@H](N2CC(c3cc4c(c(C)n3)O[C@@H](C)c3c(N5CCOCC5)ccnc3N4)C2)C1 (single isomer, unassigned) [Compound 515] | 8.91 µM | ~0.0115 µM | – | –
9 | CC#CC(=O)N1CCC(N2CC[C@H](c3cc4c(c(C)n3)OCc3c(N5CCOCC5)ccnc3N4)C2)CC1 (single isomer, unassigned) [Compound 438] | 3.09 µM | 0.191 µM | – | –
10 | Cc1nc(C2CCN(C3CN(C(=O)/C=C/C(=O)O)C3)CC2)cc2c1OCc1c(-c3cnn(C)c3)ccnc1N2 [Compound 432] | > 10 µM | > 10 µM | – | –
11 | CC#CC(=O)N1CC[C@H](N2CC(c3cc4c(c(C)n3)O[C@@H](C)c3c(N5CCOCC5)ccnc3N4)C2)C1 (single isomer, unassigned) [Compound 533] | – | – | <5 | 6.33
12 | C/C=C/C(=O)N1CC[C@H](N2CCC(c3cc4c(c(C)n3)OCc3c(-c5cnn(C)c5)ccnc3N4)CC2)C1 (single isomer, unassigned) [Compound 307] | > 10 µM | > 10 µM | – | –
13 | CC#CC(=O)N1CC(n2cc(-c3cc4c(c(C)n3)OCc3c(N5CCOCC5)ccnc3N4)cn2)C1 [Compound 346] | > 10 µM | 0.191 µM | – | –
14 | CC#CC(=O)N1CCC(N2CC(c3cc4c(c(C#N)n3)O[C@H](C)c3c(N5CCOCC5)ccnc3N4)C2)CC1 (single isomer, unassigned) [Compound 544] | > 10 µM | 2.95 µM | – | –
15 | CC#CC(=O)N1CC(N2CCC(c3cc4c(c(C)n3)OCc3c(-c5cnn(C)c5)ccnc3N4)CC2)C1 [Compound 276] | > 10 µM | 0.195 µM | – | –
16 | CC#CC(=O)N1CCC(N2CC(c3cc4c(c(C#N)n3)OC(C)c3c(N5CCOCC5)ccnc3N4)C2)CC1 (stereo not drawn) [Compound 511] | 5.62 µM | 0.115 µM | – | –
17 | C=CC(=O)N1CC[C@@H](N2CCC(c3cc4c(c(C)n3)OCc3c(-c5cnn(C)c5)ccnc3N4)CC2)C1 (single isomer, unassigned) [Compound 182] | > 10 µM | 0.038 µM | – | –

Row | SMILES | IC50 [1] | IC50 [2] | CDK7_A549 mutant hCDK7(pIC50) [1] | CDK7_A549 Wild-type CDK7 (pIC50) [2]
18 | C=CC(=O)N1CC(N2CC(c3cc4c(c(C)n3)O[C@@H](C)c3c(N5CCOCC5)ccnc3N4)C2)C1 (single isomer, unassigned) [Compound 271] | > 10 µM | 3.16 µM | – | –
19 | C#Cc1cc(C2CN([C@@H]3CCN(C(=O)C=C)C3)C2)cc2c1OCc1c(-c3cnn(C)c3)ccnc1N2 (single isomer, unassigned) [Compound 473] | > 10 µM | 0.166 µM | – | –
20 | C=CC(=O)N1CC(N2CCN(C)[C@@H](c3ccc4c(c3)Nc3nccc(N5CCOCC5)c3CO4)C2)C1 (single isomer, unassigned) [Compound 144] | > 10 µM | > 10 µM | – | –
21 | CC#CC(=O)N1CC(n2cc(-c3cc4c(c(C)n3)O[C@H](C)c3c(N5CCOCC5)ccnc3N4)cn2)C1 (single isomer, unassigned) [Compound 434] | > 10 µM | 4.57 µM | – | –
22 | C=CC(=O)N1CC[C@@H](N2CCC(c3cc4c(c(C)n3)OCc3c(N5CCOCC5)ccnc3N4)CC2)C1 (single isomer, unassigned) [Compound 294] | – | – | <5 | 7.24
23 | C=CC(=O)N1CCC(N2CC(c3cc4c(c(C)n3)O[C@H](C)c3c(N5CCOCC5)ccnc3N4)C2)CC1 (single isomer, unassigned) [Compound 423] | 5.89 µM | 0.0589 µM | – | –
24 | C#CCCN(C)C/C=C/C(=O)N1CC(N2CCC(c3ccc4c(c3)Nc3nccc(N5CCOCC5)c3[C@H](C)O4)CC2)C1 (single isomer, unassigned) [Compound 195] | > 10 µM | 0.129 µM | – | –
25 | C=CC(=O)N1CCC(N2CC(c3ccc4c(c3C)Nc3nccc(C5CCOCC5)c3CO4)C2)CC1 [Compound 131] | > 10 µM | 6.61 µM | – | –
26 | CC#CC(=O)N1CCC(N2CCC(c3cc4c(c(C)n3)O[C@@H](C)c3c(N5CCOCC5)ccnc3N4)CC2)C1 (single isomer, unassigned) [Compound 535] | ~10 µM | 0.0631 µM | – | –
27 | CC#CC(=O)N1CCC(N2CC(c3cc4c(c(C)n3)O[C@H](C)c3c(N5CCOCC5)ccnc3N4)C2)CC1 (single isomer, unassigned) [Compound 358] | 6.17 µM | 0.0398 µM | – | –
28 | C/C=C/C(=O)N1CC[C@@H](N2CCC(c3cc4c(c(C)n3)OCc3c(-c5cnn(C)c5)ccnc3N4)CC2)C1 (single isomer, unassigned) [Compound 302] | > 10 µM | ~10 µM | – | –
29 | CC#CC(=O)N1CC[C@@H](N2CC(c3cc4c(c(C)n3)O[C@H](C)c3c(N5CCOCC5)ccnc3N4)C2)C1 (single isomer, unassigned) [Compound 513] | > 10 µM | – | – | 6.36
30 | CC#CC(=O)N1CC(N2CCC(c3cc4c(c(C)n3)O[C@@H](C)c3c(-c5cnn(C)c5)ccnc3N4)CC2)C1 (single isomer, unassigned) [Compound 534] | > 10 µM | ~9.55 µM | – | –
31 | C=CC(=O)N1CC(N2CCC(c3cc4c(c(P(C)(C)=O)n3)OCc3c(N5CCOCC5)ccnc3N4)CC2)C1 [Compound 383] | > 10 µM | > 10 µM | – | –
32 | CC#CC(=O)N1CC(N2CCC(c3cc4c(c(C)n3)O[C@H](C)c3c(N5CCOCC5)ccnc3N4)CC2)C1 (single isomer, unassigned) [Compound 524] | – | – | <5 | 5.03
33 | C#CCCN(C)C/C=C/C(=O)N1CC(N2CCC(c3ccc4c(c3)Nc3nccc(C5CCOCC5)c3[C@@H](C)O4)CC2)C1 (single isomer, unassigned) [Compound 186] | > 10 µM | 0.1 µM | – | –

From patent US20240254138A1, “TRICYCLIC PYRIMIDINES AS CYCLIN-DEPENDENT KINASE 7 (CDK7) INHIBITORS” (JANSSEN PHARMACEUTICA NV, priority 2021, published 2024)
